Test results from patent publication US8653054B2, “2-(N-substituted piperazinyl) steroid derivatives” (Universite Laval, priority 2008, dated 2014).
Where two headings read alike, the source gives them in different places.

Columns and labels:
[1] = system: HL-60 acute promyelocytic leukemia cells; assay: Cell proliferation assay (MTS) on HL-60 leukemia cells; assay type: cell-based, human; details: HL-60 cancer cell line;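 further: cells exposed to serially diluted compound for 3 days at 37 °C, then viable cell number read via MTS conversion to coloured formazan by metabolically active cells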
Description: All of the following cell lines were maintained under a CO2 humidified atmosphere at 37° C. The culture media were changed every 3-4 days and the cells were split once a week.
For the assay, the culture medium was the same.
The cell proliferation assay was performed using 3-(4,5-dimethylthiazol-2-yl)-5-(3-carboxymethoxyphenyl)2-(4-sulfophenyl)-2H-tetrazolium (MTS) (Cell Titer 96 Aqueous, Promega, USA). MTS is converted into water-soluble colored formazan by dehydrogenase enzymes present in metabolically active cells, which allows the measurement of the number of viable cells.
The cells were incubated at 37° C. and 5% CO2. The steroid derivatives of the present disclosure were dissolved in ethanol to prepare the 1×10^−2 M stock solutions. The stock solutions and doxorubicin (DOX) (Novapharm, Toronto, Canada) were diluted at multiple concentrations with culture media, added to each well, as indicated, and incubated for 3 days. Following each treatment, 20 μl MTS was added to each well and the mix was incubated for 4 h.

[2] = Plasmatic concentration (AUC) of aminosteroids after a single subcutaneous injection in rat; details: Table 6, subcutaneous one time, 2.3 mg/kg
Description: (§1) Animals: Six to seven week-old male Sprague-Dawley rats (Crl:CD®(SD)Br VAF/Plus™) weighing approximately 220 g were obtained from Charles-River, Inc (St-Constant, Qc., Canada). The animals were acclimatized to environmental conditions (temperature: 22±3° C.; humidity: 50±20%; 12-h light/12-h dark cycles, lights on at 07:15 h) for at least 5 days before starting the experiment. The animals were housed three per cage and were allowed free access to water and a certified commercial rodent food (Rodent Diet #T.2018.15, Harlan Teklad, Madison, Wis., U.S.A.) and were randomized according to their body weight.
(§2) Assay: A pharmacokinetic study was carried out following one subcutaneous (s.c.) injection of the aminosteroids at one concentration (2.3 mg/kg of body weight in 0.5 mL of vehicle fluid). The compound was first dissolved in Ethanol (EtOH) followed by the addition of propylene glycol such that a final concentration of EtOH of 8% was obtained. During this experiment, the rats were housed individually and were fasted for 8h before injection of the aminosteroid. Blood samples for determination of aminosteroid plasma concentration were collected at the jugular vein (0.4 mL by animal) at target intervals of 3, 7, 12 and 24 h (or 3 and 12 h) post-dose from six rats per time point (Tables 5, 6 and 7). After the collect at 7 h, a replacement fluid (0.9% sodium chloride injection USP) was injected in the rat. Blood samples were collected in Microvette potassium-EDTA (ethylenediamine tetra-acetic acid)-coated tubes (Sarstedt, Aktiengesellchaft & Co, Germany) and centrifuged at 3200 rpm for 10 minutes at 4° C. The plasma was collected and stored at −80° C. until analyzed by liquid chromatography/mass spectrometry/mass spectrometry (LC/MS/MS) analysis.
(§3) Aminosteroid measurement: The concentration of the aminosteroid was determined by LC/MS/MS analysis using a procedure developed at the CHUQ (CHUL)—Research Center (Québec, Qc, Canada). Briefly, for extraction from serum, 100 νL, of the serum sample was transferred to individual tubes and 600 μL of ammonium acetate (1 mM) was added. A methanolic solution (50 μL) containing a steroidal internal standard was then added to each tube. Samples were transferred on Strata-X SPE columns (Phenomenex, Torrance, Calif., USA), which have been conditioned with 2 mL of MeOH and 2 mL of water. Each column was washed with 2 mL of MeOH:water (10:90, v/v). The aminosteroid was then eluted with 5 mL of MeOH containing 5 mM ammonium acetate. The MeOH was evaporated at 45° C. under inert atmosphere and the dried residue dissolved in 100 μL of MeOH:water (85:15, v/v). […] The inhibitor was detected using an API 3000 mass spectrometer, equipped with TurbolonSpray (Applied Biosystems, Canada). ESI in positive ion mode was used.

in vivo = details: male, Sprague-Dawley, rat, sc, 2.3 mg/kg
Description: as §1, §2, §3

[3] = Table 6, read-out: IC50 (HL-60)
[4] = Homo sapiens, Table 4, read-out: IC50
[5] = Homo sapiens, Table 6, read-out: IC50 (HL-60)

Row | SMILES | IC50 ([1]; Table 4, read-out: IC50) | IC50 [1, 3] | AUC (0-3 h) [2] | AUC (0-12 h) [2] | IC50 [1, 4] | IC50 [1, 5] | AUC(0-t) (in vivo; AUC (0-3 h)) | AUC(0-t) (in vivo; AUC (0-12 h))
1 | C#C[C@]1(O)CC[C@H]2[C@@H]3CC[C@H]4C[C@H](O)[C@@H](N5CCN(C(=O)[C@@H]6CCCN6C(=O)c6ccc7ccccc7c6)CC5)C[C@]4(C)[C@H]3CC[C@@]21C [26 (AH-71), {4-[(2β,3α,5α,17α)-3,17-dihydroxypregn-20-yn-2-yl]piperazin-1-yl}[(2S)-1-(naphthalen-2-ylcarbonyl)pyrrolidin-2-yl]methanone] | 1.9 µM | 1.9 µM | 278 ng·h/mL | 1338 ng·h/mL |  |  |  | 
2 | C[C@]12C[C@H](N3CCN(C(=O)[C@@H]4CCCN4C(=O)c4ccc5ccccc5c4)CC3)[C@@H](O)C[C@@H]1CC[C@@H]1[C@@H]2CC[C@@]2(C)[C@H]1CC[C@]2(C)O [30 (AH-56), {4-[(2β,3α,17β)-3,17-dihydroxy-17-methylandrostan-2-yl]piperazin-1-yl}[(2S)-1-(naphthalen-2-ylcarbonyl)pyrrolidin-2-yl]methanone] | 4.7 µM | 4.7 µM | 183 ng·h/mL | 876 ng·h/mL |  |  |  | 
3 | C[C@]12CC[C@H]3[C@@H](CCC4C[C@H](O)[C@@H](N5CCN(C(=O)[C@@H]6CCCN6C(=O)c6cc7ccccc7cn6)CC5)C[C@@]43C)[C@@H]1CC[C@@H]2O (stereo partly drawn) [31 (AH-38), {4-[(2β,3α,17β)-3,17-dihydroxyandrostan-2-yl]piperazin-1-yl}[(2S)-1-(isoquinolin-3-ylcarbonyl)pyrrolidin-2-yl]methanone] |  |  |  |  | 1.6 µM | 1.6 µM | 244 ng·h/mL | 991 ng·h/mL
4 | C[C@]12CC[C@H]3[C@@H](CCC4C[C@H](O)[C@@H](N5CCN(C(=O)[C@@H]6CCCN6C(=O)c6ccc7ncccc7c6)CC5)C[C@@]43C)[C@@H]1CC[C@@H]2O (stereo partly drawn) [32 (AH-47), {4-[(2β,3α,17β)-3,17-dihydroxyandrostan-2-yl]piperazin-1-yl}[(2S)-1-(quinolin-6-ylcarbonyl)pyrrolidin-2-yl]methanone] |  |  |  |  | 4.7 µM | 4.7 µM | 292 ng·h/mL | 1170 ng·h/mL
5 | C[C@]12CC[C@H]3[C@@H](CCC4C[C@H](O)[C@@H](N5CCN(C(=O)[C@@H]6CCCN6C(=O)c6ccc7ccccc7n6)CC5)C[C@@]43C)[C@@H]1CC[C@@H]2O (stereo partly drawn) [33 (AH-62), {4-[(2β,3α,17β)-3,17-dihydroxyandrostan-2-yl]piperazin-1-yl}[(2S)-1-(quinolin-2-ylcarbonyl)pyrrolidin-2-yl]methanone] |  |  |  |  | 1.4 µM | 1.4 µM | 185 ng·h/mL | 752 ng·h/mL
6 | CO[C@H]1CC[C@H]2[C@@H]3CCC4C[C@H](O)[C@@H](N5CCN(C(=O)[C@@H]6CCCN6C(=O)c6ccc7ccccc7c6)CC5)C[C@]4(C)[C@H]3CC[C@]12C (stereo partly drawn) [37 (AH-55), {4-[(2β,3α,17β)-3-hydroxy-17-methoxyandrostan-2-yl]piperazin-1-yl}[(2S)-1-(naphthalen-2-ylcarbonyl)pyrrolidin-2-yl]methanone] |  |  |  |  | 4.5 µM | 4.5 µM | 50 ng·h/mL | 234 ng·h/mL
7 | C[C@]12C[C@H](N3CCN(C(=O)[C@@H]4CCCN4C(=O)c4ccc5ccccc5c4)CC3)[C@@H](OC(=O)c3ccccc3C(=O)O)C[C@@H]1CC[C@@H]1[C@@H]2CC[C@]2(C)[C@@H](OC(=O)c3ccccc3C(=O)O)CC[C@@H]12 [38 (AH-75), 2,2′-{[(2β,3α,5α,17β)-2-{4-[1-(naphthalen-2-ylcarbonyl)-L-prolyl]piperazin-1-yl}androstane-3,17-diyl]bis(oxycarbonyl)}dibenzoic acid] |  |  |  |  | > 10 µM | > 10 µM | 38 ng·h/mL | 72 ng·h/mL
